25 compounds from ChEMBL document CHEMBL1140272, “Discovery of potent and use-dependent sodium channel blockers for treatment of chronic pain” (Bioorg Med Chem Lett, 2005) can be followed below.

Where only a bound is given, the exact number is not on record here.

For series [1], the target named is T1, Sodium channel protein type 9 subunit alpha (Homo sapiens, UniProt Q15858). Particulars: HEK293.
Target sequence in this assay (Q15858 whole entry, looked up): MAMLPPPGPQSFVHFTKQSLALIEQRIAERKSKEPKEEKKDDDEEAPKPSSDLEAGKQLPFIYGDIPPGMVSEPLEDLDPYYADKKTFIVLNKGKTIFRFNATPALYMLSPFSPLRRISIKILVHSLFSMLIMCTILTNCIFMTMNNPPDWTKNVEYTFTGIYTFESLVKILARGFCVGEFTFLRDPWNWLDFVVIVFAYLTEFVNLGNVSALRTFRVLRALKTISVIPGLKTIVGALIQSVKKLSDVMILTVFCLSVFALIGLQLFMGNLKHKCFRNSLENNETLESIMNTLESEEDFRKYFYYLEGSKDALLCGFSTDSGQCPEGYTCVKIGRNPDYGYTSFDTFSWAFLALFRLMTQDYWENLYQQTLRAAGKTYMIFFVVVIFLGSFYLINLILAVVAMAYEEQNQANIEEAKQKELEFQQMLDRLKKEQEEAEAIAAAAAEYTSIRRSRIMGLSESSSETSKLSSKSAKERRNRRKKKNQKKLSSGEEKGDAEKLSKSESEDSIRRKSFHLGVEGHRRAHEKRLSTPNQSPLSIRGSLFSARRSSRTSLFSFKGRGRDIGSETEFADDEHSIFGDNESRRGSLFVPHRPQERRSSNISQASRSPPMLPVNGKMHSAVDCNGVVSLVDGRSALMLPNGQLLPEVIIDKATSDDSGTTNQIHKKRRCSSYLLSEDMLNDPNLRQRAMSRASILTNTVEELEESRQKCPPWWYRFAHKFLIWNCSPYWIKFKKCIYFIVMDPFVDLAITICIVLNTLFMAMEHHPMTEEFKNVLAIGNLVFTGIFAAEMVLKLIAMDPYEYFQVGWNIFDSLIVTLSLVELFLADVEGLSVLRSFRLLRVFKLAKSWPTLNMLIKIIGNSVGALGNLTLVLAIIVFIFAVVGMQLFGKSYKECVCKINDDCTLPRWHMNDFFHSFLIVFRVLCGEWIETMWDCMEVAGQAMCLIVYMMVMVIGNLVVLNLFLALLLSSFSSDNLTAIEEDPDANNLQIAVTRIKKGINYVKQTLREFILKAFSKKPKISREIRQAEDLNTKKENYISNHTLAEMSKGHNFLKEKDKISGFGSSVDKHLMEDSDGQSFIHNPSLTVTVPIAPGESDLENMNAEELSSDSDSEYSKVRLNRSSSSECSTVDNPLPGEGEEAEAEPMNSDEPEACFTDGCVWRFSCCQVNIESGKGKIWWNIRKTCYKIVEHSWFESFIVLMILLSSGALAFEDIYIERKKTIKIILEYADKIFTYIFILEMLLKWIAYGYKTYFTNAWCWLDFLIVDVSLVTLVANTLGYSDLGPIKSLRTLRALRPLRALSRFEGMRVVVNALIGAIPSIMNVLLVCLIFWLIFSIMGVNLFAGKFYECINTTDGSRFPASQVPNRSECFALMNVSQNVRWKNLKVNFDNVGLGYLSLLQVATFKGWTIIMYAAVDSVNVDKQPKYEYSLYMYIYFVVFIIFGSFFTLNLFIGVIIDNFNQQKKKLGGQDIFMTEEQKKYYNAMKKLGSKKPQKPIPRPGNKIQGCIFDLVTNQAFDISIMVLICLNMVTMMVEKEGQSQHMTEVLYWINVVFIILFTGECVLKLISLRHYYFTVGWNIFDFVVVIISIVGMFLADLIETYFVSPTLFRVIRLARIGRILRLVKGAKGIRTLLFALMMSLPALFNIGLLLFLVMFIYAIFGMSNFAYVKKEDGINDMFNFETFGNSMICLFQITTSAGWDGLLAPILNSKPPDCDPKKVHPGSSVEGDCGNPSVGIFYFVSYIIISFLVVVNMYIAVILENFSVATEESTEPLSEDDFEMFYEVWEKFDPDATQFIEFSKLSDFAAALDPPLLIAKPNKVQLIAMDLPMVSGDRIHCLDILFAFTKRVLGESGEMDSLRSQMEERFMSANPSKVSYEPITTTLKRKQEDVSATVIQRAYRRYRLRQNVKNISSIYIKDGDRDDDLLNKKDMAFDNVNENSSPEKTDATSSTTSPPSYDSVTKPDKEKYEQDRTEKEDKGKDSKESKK
A short description of series [2]: Bioavailability in rat. The series is classed as ADME, organism-based. Particulars: in vivo.
A short description of series [3]: Clearance rate in rat was determined. The series is classed as ADME, organism-based. The settings on record: plasma, read-out: Clp.
A further series addresses hERG (KCNH2) (Homo sapiens, UniProt Q12809). As to the kind of experiment: Percent inhibition against displacement of 35[S] MK-499 binding to hERG channel expressed in HEK293 cells at a concentration of 10 uM. The class given is cell-based. The settings on record: HEK293 cells that express hERG, probe [35S]MK-499. A general note: Block of hERG is tested as a sign of cardiac risk.

Series [4] concerns the target T1, Sodium channel protein type 9 subunit alpha. The series can be described thus: In vitro inhibitory concentration against Na v1.7 channel electrophysiology in inactivated state expressed in HEK293 cells using Voltage/Ion Probe Reader (VIPR) assay. The class given is cell-based.
Target sequence in this assay (Q15858 whole entry): as the sequence (Q15858 whole entry, looked up) above
The next series has as its system Rattus norvegicus. The series can be described thus: Percent formalin paw response in rat at (10-40 min, 3 mg/kg, iv). The series is classed as functional.
Series [5] deals with T1, Sodium channel protein type 9 subunit alpha. As to the kind of experiment: In vitro inhibitory concentration against Na v1.7 channel expressed in HEK293 cells using Voltage/Ion Probe Reader (VIPR) assay. The class given is cell-based.
Target sequence in this assay (Q15858 whole entry): as the sequence (Q15858 whole entry, looked up) above
Series [6] deals with T2, Voltage-gated inwardly rectifying potassium channel KCNH2 (Homo sapiens, UniProt Q12809). The series can be described thus: In vivo inhibitory concentration against displacement of 35[S] MK-499 binding to hERG channel expressed in HEK293 cells. The series is classed as organism-based.
Series [7] deals with T1, Sodium channel protein type 9 subunit alpha. As to the kind of experiment: In vivo inhibitory concentration against Na v1.7 channel expressed in HEK293 cells using Voltage/Ion Probe Reader (VIPR) assay. The class given is organism-based.
Target sequence in this assay (Q15858 whole entry): as the sequence (Q15858 whole entry, looked up) above
Series [8] in a line: Half-life in rat was determined. The class given is ADME. Particulars: in vivo.
Series [9] has as its target T2, Voltage-gated inwardly rectifying potassium channel KCNH2.
Description: In vitro inhibitory concentration against displacement of 35[S] MK-499 binding to hERG channel expressed in HEK293 cells
Series [10] has as its target T1, Sodium channel protein type 9 subunit alpha. As to the kind of experiment: In vitro inhibitory concentration against Na v1.7 channel electrophysiology in resting state expressed in HEK293 cells using Voltage/Ion Probe Reader (VIPR) assay. The series is classed as functional, cell-based.
Target sequence in this assay (Q15858 whole entry, looked up): as above

hERG (KCNH2), sequence (Q12809 whole entry): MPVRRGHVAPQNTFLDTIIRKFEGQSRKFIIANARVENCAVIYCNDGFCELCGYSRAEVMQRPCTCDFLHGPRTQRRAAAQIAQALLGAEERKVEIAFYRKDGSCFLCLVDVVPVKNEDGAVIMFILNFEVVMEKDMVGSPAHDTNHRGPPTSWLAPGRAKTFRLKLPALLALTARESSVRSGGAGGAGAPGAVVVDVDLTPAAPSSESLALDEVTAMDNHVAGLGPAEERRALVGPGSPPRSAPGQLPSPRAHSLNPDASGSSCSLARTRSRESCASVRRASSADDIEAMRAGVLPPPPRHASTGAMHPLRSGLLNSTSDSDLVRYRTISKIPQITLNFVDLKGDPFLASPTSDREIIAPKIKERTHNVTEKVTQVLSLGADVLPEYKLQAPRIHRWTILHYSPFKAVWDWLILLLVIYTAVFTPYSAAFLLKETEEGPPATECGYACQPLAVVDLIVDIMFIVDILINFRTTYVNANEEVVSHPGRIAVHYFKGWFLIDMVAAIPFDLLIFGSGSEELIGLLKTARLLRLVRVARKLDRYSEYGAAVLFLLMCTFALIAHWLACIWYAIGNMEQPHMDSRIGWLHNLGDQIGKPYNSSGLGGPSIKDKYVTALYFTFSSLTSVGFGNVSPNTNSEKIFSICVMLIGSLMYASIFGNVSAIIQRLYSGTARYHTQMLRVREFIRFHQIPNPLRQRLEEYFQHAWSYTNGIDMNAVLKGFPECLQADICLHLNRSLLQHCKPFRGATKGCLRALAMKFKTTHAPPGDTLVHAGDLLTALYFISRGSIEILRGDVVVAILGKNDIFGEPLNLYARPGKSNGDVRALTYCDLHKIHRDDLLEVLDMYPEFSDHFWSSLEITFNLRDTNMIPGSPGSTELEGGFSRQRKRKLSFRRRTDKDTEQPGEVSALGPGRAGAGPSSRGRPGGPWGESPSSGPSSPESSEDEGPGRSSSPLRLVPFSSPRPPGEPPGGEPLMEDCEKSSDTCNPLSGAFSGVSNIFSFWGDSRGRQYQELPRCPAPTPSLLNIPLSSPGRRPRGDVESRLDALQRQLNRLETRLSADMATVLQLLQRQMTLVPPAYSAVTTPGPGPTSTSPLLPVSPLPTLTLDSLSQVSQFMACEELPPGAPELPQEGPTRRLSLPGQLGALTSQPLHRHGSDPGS
T2 sequence (Q12809 whole entry): as above

Regarding `O=C(c1ccccc1OCc1csc(-c2ccc(Cl)cc2)n1)N1CCCC1`, in series [1], the KR was 6.7 µM. Besides, in [2], the bioavailability – broadly, the share of a dose that reaches the circulation, judged against a reference dose that is usually intravenous – came to 17%. In addition, in [3], the clearance turned out to be 627 mL/min/kg. Also, at 10 µM the inhibition at hERG (KCNH2) was 63%. The compound also yielded a Ki in series [4] of 160 nM. In the series with Rattus norvegicus, this compound displayed an Activity of 65%. Further, the IC50 (as a rule, the concentration at which inhibition is half-maximal) in series [5] was 1 µM; in series [6] it was 9.8 µM; in series [7] it was 1000 nM. The half-life (as a rule, how long it takes for the measured level to halve) in series [8] was 26.4 min.

Compound `COc1cccc(CN2CCCCCCC2)c1OCc1csc(-c2ccc(Cl)cc2)n1` came in with an IC50 in [5] of 3.8 µM.

`COc1cccc(C(=O)N2CCCC2)c1OC(C)c1csc(-c2ccc(Cl)cc2)n1` (stereo not given): 2.2 µM corresponded to half-maximal inhibition in [5] (IC50).

In turn, `CCOc1cccc(C(=O)N2CCCC2)c1OCc1csc(-c2ccc(Cl)cc2)n1` came in with an IC50 in series [5] of 6.6 µM.

Compound `Clc1ccc(-c2nc(COc3ccccc3CN3CCCCCCC3)cs2)cc1` showed an IC50 in series [5] of 2.9 µM.

Regarding `COc1cccc(C(=O)N2CCCC2)c1OCc1nc(-c2ccc(Cl)cc2)no1`, the midpoint of inhibition in [5], the IC50, lay at 0.86 µM.

`CC(C)(C)Oc1cccc(C(=O)N2CCCC2)c1OCc1csc(-c2ccc(Cl)cc2)n1`: the IC50 in series [5] came to 22 µM.

Take `COc1cccc(CN2CCCCCCC2)c1OCc1csc(-c2ccccc2)n1`: the IC50 in [5] stood at 4 µM; in [9], 0.18 µM.

Turning to `COc1cccc(C(=O)N2CCCC2)c1OCc1ccc(C(C)(C)C)cc1`, the IC50 in series [5] was found to be 90 µM.

`O=C(c1cccc(O)c1OCc1csc(-c2ccc(Cl)cc2)n1)N1CCCC1` yielded an IC50 in series [5] greater than 30 µM.

For the compound `O=C(c1ccccc1OCc1csc(-c2ccc(Cl)cc2)n1)N1CCCCCCC1`, on hERG (KCNH2), the inhibition (usually the drop in the measured response relative to a control, in per cent) at 10 µM was found to be 90%. For the same compound, in [5], the IC50 came out at 29 µM.

At hERG (KCNH2), `COc1cccc(C(=O)N2CCCCCC2)c1OCc1csc(-c2ccc(Cl)cc2)n1` returned an inhibition at 10 µM of 85%. Further, in [5], half-maximal inhibition (IC50) required 6.5 µM.

On hERG (KCNH2), `O=C(c1ccccc1OCc1csc(-c2ccc(Cl)cc2)n1)N1CCCCC1` had an inhibition at 10 µM of 89%. Besides, the IC50 in series [5] was determined as 7.4 µM.

In series [5], `COc1cccc(C(=O)N2CCCC2)c1OC(C)c1ccccc1` (stereo not given) had a concentration for half-maximal inhibition (IC50) greater than 30 µM.

Take `COc1cccc(C(=O)N2CCCCC2)c1OCc1csc(-c2ccc(Cl)cc2)n1`: on hERG (KCNH2), at 10 µM the inhibition was 63%. The IC50 in series [5] was determined as 3.7 µM.

In series [5], `O=C(c1cccc(Cl)c1OCc1csc(-c2ccc(Cl)cc2)n1)N1CCCC1` yielded an IC50 of 0.73 µM.

With `COc1cccc(C(=O)N2CCCC2)c1OCc1csc(-c2ccc(Cl)cc2)n1`, in series [2], the bioavailability turned out to be 9.4%. In series [3], the clearance worked out at 101 mL/min/kg. Besides, on hERG (KCNH2), 10 µM produced 50% inhibition. For the same compound, the Ki in series [4] turned out to be 140 nM. Besides, the Activity in the series on Rattus norvegicus came out at 68%. The IC50 came to 1.3 µM in series [5], 1.3 µM in [5] (hek293) and 7.7 µM in series [9]. Also, in series [10], the KR came to 10 µM. Besides, the half-life in [8] was 28.8 min.

As for `COc1cccc(C(=O)N2CCCC2)c1OCc1ccc(-c2cccs2)s1`, in [5], it took 0.55 µM to reach half-maximal inhibition (IC50).

Compound `COc1cccc(C(=O)N2CCCCCCC2)c1OCc1csc(-c2ccc(Cl)cc2)n1` came in with an inhibition at 10 µM at hERG (KCNH2) of 88%. The compound further registered an IC50 in series [5] of 19.4 µM.

As for `COc1cccc(C(=O)N2CCCC2)c1OCCc1ccccc1`, the half-maximal inhibitory concentration (IC50) in series [5] was greater than 30 µM.

On hERG (KCNH2), `O=C(c1ccccc1OCc1csc(-c2ccc(Cl)cc2)n1)N1CCCCCC1` returned an inhibition at 10 µM of 90%. Further, half-maximal inhibition in [5] (IC50) was put at 40 µM.

Take `COc1cccc(C(=O)N2CCCC2)c1OCCCc1ccccc1`: in series [5], it took 21 µM to reach half-maximal inhibition (IC50).

In series [5], `Cc1cccc(C(=O)N2CCCC2)c1OCc1csc(-c2ccc(Cl)cc2)n1` displayed an IC50 of 0.55 µM.

`CC(C)Oc1cccc(C(=O)N2CCCC2)c1OCc1csc(-c2ccc(Cl)cc2)n1` had an IC50 in [5] of 7.5 µM.

For the compound `COc1cccc(C(=O)N2CCCC2)c1OCc1ccc(-c2ccccc2)cc1`, inhibition in series [5] was half-maximal at 4 µM (IC50).
